In US20050261290A1, “Novel compounds of proline and morpholine derivatives” (priority 2004, published 2005):
Where two headings read alike, the source gives them in different places.

Biological target: human 11b-hsd-1 (Homo sapiens, UniProt P28845)
Assay: Inhibition constant Ki of human 11b-hsd-1 (3H-cortisone to 3H-cortisol conversion, HPLC)
Assay type: biochemical
Conditions: for Ki: apparent Ki, read-out: Ki app

human 11b-hsd-1, sequence (P28845 whole entry): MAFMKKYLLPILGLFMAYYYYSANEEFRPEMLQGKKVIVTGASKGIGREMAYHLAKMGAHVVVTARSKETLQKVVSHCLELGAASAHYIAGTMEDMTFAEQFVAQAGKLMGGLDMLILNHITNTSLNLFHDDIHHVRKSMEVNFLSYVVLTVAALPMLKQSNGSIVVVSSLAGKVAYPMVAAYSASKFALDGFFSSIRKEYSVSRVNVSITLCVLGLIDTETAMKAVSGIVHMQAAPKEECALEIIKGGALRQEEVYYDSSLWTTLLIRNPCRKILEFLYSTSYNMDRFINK

Row | Compound | Ki (human 11b-hsd-1) [nM] | inhibition at 0.1 µM (compound at 0.1 μM) [%] | inhibition at 0.1 µM (0.1 μM compound) [%] | Ki [nM]
1 | O=C(NC12CC3CC(CC(C3)C1)C2)C1COCCN1CC1CCOCC1 (stereo not drawn) [Example 184] | 3.2 | 100 | – | –
2 | O=C(NC12CC3CC(CC(C3)C1)C2)C1COCCN1CCC1CCOCC1 (stereo not drawn) [Example 185] | 14 | 91.3 | – | –
3 | CC1(C)CC(NC(=O)C2COCCN2Cc2ccccc2)CC(C)(C)C1 (stereo not drawn) [Example 186] | 1 | 100 | – | –
4 | CC1(C)CC(NC(=O)C2COCCN2Cc2cccc(C#N)c2)CC(C)(C)C1 (stereo not drawn) [Example 187] | 3 | 100 | – | –
5 | CC1(C)CC(NC(=O)C2COCCN2CC2CCCCC2)CC(C)(C)C1 (stereo not drawn) [Example 188] | 1.7 | 100 | – | –
6 | CC1(C)CC(NC(=O)C2COCCN2Cc2cccc(OC(F)F)c2)CC(C)(C)C1 (stereo not drawn) [Example 189] | 1.1 | 100 | – | –
7 | CC1(C)CC(NC(=O)C2COCCN2CC2CCCC2)CC(C)(C)C1 (stereo not drawn) [Example 190] | 1.1 | 100 | – | –
8 | CN(C(=O)[C@H]1CCCN1Cc1ccc(Cl)cc1)C1CCCCC1 [Example 191] | 28 | 83.7 | – | –
9 | CC(C)CN1CSC[C@@H]1C(=O)N(C)C1CCCCC1 [Example 196] | – | – | 85.3 | 27
10 | CCC1CCCCN1C(=O)[C@H]1CCCN1Cc1ccc(Cl)cc1 (stereo partly drawn) [Example 197] | – | – | 73.2 | 50
11 | CCC1CCCCN1C(=O)C1CCCCN1Cc1ccc(Cl)cc1 (stereo not drawn) [Example 199] | – | – | 80.2 | 32
12 | CCC1CCCCN1C(=O)[C@H]1CSCN1CC(C)C (stereo partly drawn) [Example 200] | – | – | 91.6 | 36
13 | CC(C)CN1CC[C@H](O)[C@H]1C(=O)NC12CC3CC(CC(C3)C1)C2 [Example 211] | – | – | 80.2 | 32
14 | O=C(NCc1ccccc1F)[C@H]1CCCN1Cc1ccccc1 [Example 212] | – | – | 77.6 | 85
15 | O=C(NCc1ccc(Cl)cc1)[C@H]1CCCN1Cc1ccccc1 [Example 213] | – | – | 78 | 120
16 | O=C(NCc1ccc(F)cc1)[C@H]1CCCN1Cc1ccccc1 [Example 214] | – | – | 82.7 | 59
17 | CCCN1CCC[C@@H]1C(=O)NCc1ccccc1 [Example 217] | – | – | 84.6 | 171
18 | CCCN1CCC[C@@H]1C(=O)NCc1ccc(OC)cc1 [Example 218] | – | – | 91.1 | 2500
19 | CC(C)CN1CCC[C@@H]1C(=O)NCc1ccccn1 [Example 219] | – | – | 86.6 | 168

Row | Compound | Ki (human 11b-hsd-1) [nM] | inhibition at 0.1 µM (compound at 0.1 μM) [%] | inhibition at 0.1 µM (0.1 μM compound) [%] | Ki [nM]
20 | CC(C)CN1CCC[C@@H]1C(=O)NCc1cccc(Cl)c1 [Example 223] | – | – | 86.3 | 26
21 | O=C(NCc1ccccc1)[C@H]1CCCN1CC1CC1 [Example 224] | – | – | 90 | 189
22 | O=C(NCc1ccc(F)cc1)[C@H]1CCCN1CC1CC1 [Example 225] | – | – | 86.2 | 153
23 | O=C(NCc1ccc(Cl)cc1)[C@H]1CCCN1CC1CCCC1 [Example 227] | – | – | 80.3 | 36
24 | O=C(NCc1ccc(F)cc1)[C@H]1CCCN1CC1CCCC1 [Example 228] | – | – | 89.3 | 54
25 | O=C(NCc1ccccc1F)[C@H]1CCCN1CCC(F)(F)F [Example 229] | – | – | 73.7 | 48
26 | O=C(NCc1ccc(F)cc1)[C@H]1CCCN1Cc1ccccc1Cl [Example 232] | – | – | 71.5 | 47
27 | O=C(NCc1ccc(F)cc1)[C@H]1CCCN1Cc1ccc(Cl)cc1 [Example 235] | – | – | 83.8 | 25
28 | O=C(NCc1ccc(F)cc1F)[C@H]1CCCN1Cc1ccccc1 [Example 236] | – | – | 76.8 | 66
29 | O=C(NCc1cccc(F)c1)[C@H]1CCCN1CC1CCCC1 [Example 240] | – | – | 76.3 | 44
30 | O=C(NCc1c(F)cccc1F)[C@H]1CCCN1CC1CCCC1 [Example 241] | – | – | 81.4 | 32
31 | O=C(NCc1ccc(F)cc1F)[C@H]1CCCN1CCC(F)(F)F [Example 242] | – | – | 78.9 | 44
32 | COc1ccccc1CNC(=O)[C@H]1CCCN1Cc1ccc(C#N)cc1 [Example 251] | – | – | 83.5 | 47
33 | Cc1ccccc1CNC(=O)[C@H]1CCCN1Cc1ccc(C#N)cc1 [Example 252] | – | – | 82.6 | 52
34 | COc1ccccc1CNC(=O)[C@H]1CCCN1CC1CCCC1 [Example 261] | – | – | 100 | 25
35 | COc1cccc(CNC(=O)[C@H]2CCCN2CC2CCCC2)c1 [Example 262] | – | – | 76 | 60
36 | COc1ccccc1CNC(=O)[C@H]1CCCN1CCC(F)(F)F [Example 263] | – | – | 77.5 | 62
37 | COc1ccccc1CNC(=O)[C@H]1CCCN1Cc1cccc(Cl)c1 [Example 266] | – | – | 77.9 | 57
38 | COc1ccccc1CNC(=O)[C@H]1CCCN1CCc1ccccc1 [Example 269] | – | – | 77.8 | 66

Second part, the molecule after the results:

Row | Ki (human 11b-hsd-1) [nM] | inhibition at 0.1 µM (compound at 0.1 μM) [%] | inhibition at 0.1 µM (0.1 μM compound) [%] | Ki [nM] | Compound
39 | – | – | 100 | 9.6 | CN(C(=O)[C@@H]1CSCN1Cc1ccc(Cl)cc1)C1CCCCC1 [Example 192]
40 | – | – | 100 | 14 | CN(C(=O)C1CCCCN1Cc1ccc(Cl)cc1)C1CCCCC1 (stereo not drawn) [Example 193]
41 | – | – | 86.2 | 25 | CN(C(=O)[C@H]1CSCN1Cc1ccc(Cl)cc1)C1CCCCC1 [Example 194]
42 | – | – | 100 | 13 | CC(C)CN1CSC[C@H]1C(=O)N(C)C1CCCCC1 [Example 195]
43 | – | – | 100 | 2.5 | CCC1CCCCN1C(=O)[C@H]1CSCN1Cc1ccc(Cl)cc1 (stereo partly drawn) [Example 198]
44 | – | – | 100 | 4.8 | O=C(NC12CC3CC(CC(C3)C1)C2)[C@H]1CSCN1Cc1ccc(Cl)cc1 [Example 202]
45 | – | – | 100 | 3.17 | CC(C)CN1CCC[C@@H]1C(=O)NC12CC3CC(CC(C3)C1)C2 [Example 205]
46 | – | – | 100 | 5.2 | CC(C)CN1CCCCC1C(=O)NC12CC3CC(CC(C3)C1)C2 (stereo not drawn) [Example 206]
47 | – | – | 92.1 | 11 | CC(C)CN1C[C@H](O)C[C@H]1C(=O)NC12CC3CC(CC(C3)C1)C2 [Example 207]
48 | – | – | 100 | 1 | CC(C)CN1CSC[C@@H]1C(=O)NC12CC3CC(CC(C3)C1)C2 [Example 208]
49 | – | – | 96.7 | 5.1 | CC(C)CN1CCC[C@@H]1C(=O)NCc1ccccc1F [Example 220]
50 | – | – | 95.7 | 5.9 | CC(C)CN1CCC[C@@H]1C(=O)NCc1ccc(Cl)cc1 [Example 221]
51 | – | – | 100 | 6.9 | CC(C)CN1CCC[C@@H]1C(=O)NCc1ccc(F)cc1 [Example 222]
52 | – | – | 82.2 | 22 | O=C(NCc1ccccc1)[C@H]1CCCN1CC1CCCC1 [Example 226]
53 | – | – | 100 | 10.3 | CC(C)CN1CCC[C@@H]1C(=O)NCc1cccc(F)c1 [Example 237]
54 | – | – | 88.4 | 16.3 | CC(C)CN1CCC[C@@H]1C(=O)NCc1ccc(F)cc1F [Example 238]
55 | – | – | 97.6 | 5.62 | CC(C)CN1CCC[C@@H]1C(=O)NCc1c(F)cccc1F [Example 239]
56 | – | – | 84.9 | 15 | O=C(NCc1ccc(F)cc1F)[C@H]1CCCN1Cc1ccc(Cl)cc1 [Example 243]
57 | – | – | 87.1 | 18 | O=C(NCc1c(F)cccc1F)[C@H]1CCCN1Cc1ccc(Cl)cc1 [Example 244]

Row | Ki (human 11b-hsd-1) [nM] | inhibition at 0.1 µM (compound at 0.1 μM) [%] | inhibition at 0.1 µM (0.1 μM compound) [%] | Ki [nM] | Compound
58 | – | – | 84.6 | 17 | COc1ccccc1CNC(=O)[C@H]1CCCN1Cc1ccccc1 [Example 245]
59 | – | – | 87.7 | 16 | Cc1ccccc1CNC(=O)[C@H]1CCCN1Cc1ccccc1 [Example 246]
60 | – | – | 88 | 14 | O=C(NCc1ccccc1Cl)[C@H]1CCCN1Cc1ccccc1 [Example 247]
61 | – | – | 100 | 1.3 | O=C(NC12CC3CC(CC(C3)C1)C2)[C@H]1CCCN1Cc1ccccc1 [Example 248]
62 | – | – | 100 | 1 | N#Cc1cccc(CN2CCC[C@@H]2C(=O)NC23CC4CC(CC(C4)C2)C3)c1 [Example 249]
63 | – | – | 100 | 5.9 | O=C(NC12CC3CC(CC(C3)C1)C2)[C@H]1CCCN1Cc1ccccn1 [Example 250]
64 | – | – | 100 | 24 | N#Cc1ccc(CN2CCC[C@@H]2C(=O)NCc2ccccc2Cl)cc1 [Example 253]
65 | – | – | 100 | 1 | N#Cc1ccc(CN2CCC[C@@H]2C(=O)NC23CC4CC(CC(C4)C2)C3)cc1 [Example 254]
66 | – | – | 100 | 8.6 | COc1ccccc1CNC(=O)[C@H]1CCCN1CC(C)C [Example 255]
67 | – | – | 100 | 7 | Cc1ccccc1CNC(=O)[C@H]1CCCN1CC(C)C [Example 256]
68 | – | – | 100 | 2.1 | CC(C)CN1CCC[C@@H]1C(=O)NCc1ccccc1Cl [Example 257]
69 | – | – | 90.1 | 24 | Cc1cccc(CNC(=O)[C@H]2CCCN2CC(C)C)c1 [Example 258]
70 | – | – | 100 | 11 | Cc1ccc(CNC(=O)[C@H]2CCCN2CC(C)C)cc1 [Example 259]
71 | – | – | 89.6 | 16 | COc1cccc(CNC(=O)[C@H]2CCCN2CC(C)C)c1 [Example 260]
72 | – | – | 86.5 | 10 | Cc1ccccc1CNC(=O)[C@H]1CCCN1CCC(F)(F)F [Example 264]
73 | – | – | 86 | 4.1 | O=C(NCc1ccccc1Cl)[C@H]1CCCN1CCC(F)(F)F [Example 265]
74 | – | – | 100 | 12 | COc1ccccc1CNC(=O)[C@H]1CCCN1Cc1ccc(Cl)cc1 [Example 267]
75 | – | – | 100 | 10 | Cc1ccccc1CNC(=O)[C@H]1CCCN1Cc1ccc(Cl)cc1 [Example 268]
